We go through four molecules from patent publication US4308256A, “Method of inducing analgesia” (American Home Products Corporation, priority 1980, dated 1981).

Bridge positions count the residues as written; N and C are the ends. Square brackets hold non-standard residues; d marks the D form. Peptide text beside a SMILES is read from it. * marks the point of attachment. Ileψ(thiazoline)Cys = CC[C@H](C)[C@H](N)C1=N[C@H](C(=O)*)CS1; dOrn = NCCC[C@@H](N)C(=O)O

In one assay the test system is male Charles River rats. Kind of assay: D'Amour-Smith rat tail-flick procedure (radiant heat, 8 second cut-off), intraventricular injection. Format: in vivo. To be noted: for Tail-flick latency: leucine-enkephalin intraventricular. Here is the method: Intraventricular cannulae, made of 27-gauge stainless steel tubing, are implanted in 300-400 g. male Charles River rats under pentobarbital anesthesia. After a recovery period of at least one week, the rats are restrained in a wire-mesh cylindrical chamber so that the tip of the tail can be positioned at the focal point of a radiant heat source. After an acclimatistation period of 5 minutes, the lamp is turned on and an electric clock activated. Movement of the tip of the tail exposes a photocell to the lamp, which turns off the thermal stimulus and stops the clock. If a rat fails to move its tail within 8 seconds, the heat is automatically turned off to prevent blistering. The intensity of the lamp is adjusted in each case to produce at least three baseline tail-flick latencies of 2.5-4.5 seconds. Tests are initially made every 2 minutes, then every 5 minutes and finally every 15 minutes.
Initially, using the above outlined procedure, the effects of intraventricularly administered leucine-enkephalin are tested in rats according to the above procedure.
The rat tail flick procedure is repeated, first by the simultaneous intraventricular injection of both leucine-enkephalin and bestatin and then by the initial injection of bestatin followed one hour later by the injection of leucine-enkephalin.
The above procedure is repeated again, however, the bestatin is administered first and then one hour later the leucine-enkephalin is administered.
The effects of bestatin alone are tested in rats according to the rat tail flick procedure.

The next assay deals with rats. To be noted: fully reversible by naloxone; cited from earlier work.
The test system of another assay is aminopeptidase. To be noted: cited from earlier work.
The mark [1] stands for this setting: exogenously (intraventricularly) administered leucine-enkephalin alone, rats.

For `CC(C)C[C@H](NC(=O)[C@H](Cc1ccccc1)NC(=O)CNC(=O)CNC(=O)[C@@H](N)Cc1ccc(O)cc1)C(=O)O` [leucine-enkephalin, H-Tyr-Gly-Gly-Phe-Leu-OH, reference compound], the “Time after which the effect dissipates rapidly” value in the assay with male Charles River rats (setting [1]) lay within 10 to 12 min. The “Time to peak analgesic effect” value in the assay on male Charles River rats (setting [1]) was in the range of 6 to 8 min. Besides, the Tail-flick latency with male Charles River rats (Rat 1, 2 min) stood at 8.00 s; with male Charles River rats (Rat 1, 4 min), 8.00 s; with male Charles River rats (Rat 1, 6 min), 8.00 s; in the assay with male Charles River rats (Rat 1, 8 min), 8.00 s; in the assay on male Charles River rats (Rat 1, 10 min), 6.15 s; in the assay with male Charles River rats (Rat 1, 12 min), 5.76 s. The Tail-flick latency in the assay on male Charles River rats (Rat 1, 14 min) was 2.69 s; with male Charles River rats (Rat 2, 2 min) it was 8.00 s; in the assay on male Charles River rats (Rat 2, 4 min), 8.00 s; in the assay on male Charles River rats (Rat 2, 6 min), 5.11 s; with male Charles River rats (Rat 2, 8 min), 4.24 s; with male Charles River rats (Rat 2, 10 min), 3.48 s. In addition, the Tail-flick latency came to 4.15 s in the assay with male Charles River rats (Rat 2, 12 min); 4.88 s with male Charles River rats (Rat 3, 2 min); 8.00 s with male Charles River rats (Rat 3, 4 min); 7.50 s with male Charles River rats (Rat 3, 6 min); 8.00 s in the assay with male Charles River rats (Rat 3, 8 min); 4.50 s in the assay on male Charles River rats (Rat 3, 10 min). Besides, the Tail-flick latency in the assay with male Charles River rats (Rat 3, 12 min) worked out at 3.49 s; with male Charles River rats (Rat 3, 14 min), 3.04 s; with male Charles River rats (Rat 4, 2 min), 6.47 s; in the assay on male Charles River rats (Rat 4, 4 min), 6.97 s; in the assay on male Charles River rats (Rat 4, 6 min), 6.62 s; in the assay on male Charles River rats (Rat 4, 8 min) it was 7.17 s. For the same molecule, the Tail-flick latency with male Charles River rats (Rat 4, 10 min) came out at 6.81 s; in the assay with male Charles River rats (Rat 4, 12 min), 7.52 s; in the assay with male Charles River rats (Rat 4, 14 min) it was 3.06 s. The “Analgesia after injection into the brain ventricle” value with rats is “profound analgesia”.
As to `CC[C@H](C)[C@H](N)C1=N[C@H](C(=O)N[C@@H](CC(C)C)C(=O)N[C@H](CCC(=O)O)C(=O)N[C@H](C(=O)N[C@H]2CCCCNC(=O)[C@H](CC(N)=O)NC(=O)[C@@H](CC(=O)O)NC(=O)[C@H](Cc3cnc[nH]3)NC(=O)[C@@H](Cc3ccccc3)NC(=O)[C@H]([C@@H](C)CC)NC(=O)[C@@H](CCCN)NC2=O)[C@@H](C)CC)CS1` [bacitracin] ({Ileψ(thiazoline)Cys}-L[dE]IK[dOrn]I[dF]H[dD]N; lactam 4-C), the “Inhibition of "aminopeptidase"-catalyzed breakdown of enkephalins” value in the assay on aminopeptidase was “effective inhibitors”.
Turning to “H-Tyr-Gly-Gly-Phe-Met-OH [methionine-enkephalin]”, in the assay on rats, the “Analgesia after injection into the brain ventricle” value was “profound analgesia”.
Regarding `COc1ccc(C[C@H](N)C(=O)N[C@H]2[C@@H](O)[C@H](n3cnc4c(N(C)C)ncnc43)O[C@@H]2CO)cc1` [puromycin], the “Inhibition of "aminopeptidase"-catalyzed breakdown of enkephalins” value in the assay with aminopeptidase is on record as “effective inhibitors”.
